# Test results published in patent US4314988A, “Folic acid derivatives and process for preparation” (Baker Instruments Corp., priority 1979, dated 1982).
# How the values were obtained:
# [1] = molecular target: whole milk folate binder (Bos taurus, UniProt P02702); experiment: Competitive protein binding (CPB) radioassay for folates using pteroyltyrosine [125I] as radiolabel; details: for coincidence of dose response curves generated using pteroyltyrosine [125I] as label: high pH versus lower pH
# Chain of whole milk folate binder (P02702 20-234): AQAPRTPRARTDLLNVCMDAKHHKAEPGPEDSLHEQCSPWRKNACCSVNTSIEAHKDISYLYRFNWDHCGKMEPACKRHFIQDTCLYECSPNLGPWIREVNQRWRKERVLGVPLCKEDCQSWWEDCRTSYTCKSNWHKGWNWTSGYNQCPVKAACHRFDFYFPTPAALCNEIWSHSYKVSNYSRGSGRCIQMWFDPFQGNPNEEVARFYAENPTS
# Description: The use of the Centria® analytical system, Union Carbide Corporation, in this example, is meant to be illustrative and other methods, both automated and manual, obvious to those skilled in the clinical diagnostic art are also within the scope of this invention.
# Briefly, the Centria® system is a tri-modular instrument in which reagents are pipetted on to a multiwell transfer disk and mixed centrifugally with standards or patients' samples. After a suitable incubation period, the components are separated by a centrifugal elution of the bound and free fractions and the bound fractions counted three at a time.
# Folic acid and N^5 -methyltetrahydrofolic acid standards in the range 0-20 nanograms/milliliter were prepared in 0.05 M sodium borate, pH 9.3 containing 0.1% human serum albumin. The whole milk binder was prepared according to the method of Rothenberg et al., (3) and dissolved in sodium borate, pH 9.3 containing 0.1% human serum albumin.
# (50 microliters, 20,000 cpm) plus 85 microliters of water with the limited number of binding sites contained in a 200 microliter solution of whole milk folate binder. The binding reactions may be shown as follows:
# A gamma counter which counts three of the 36 positions at a time for one minute, so constructed that only the eluate bottom portion of the test tubes fits into the counter, was then used to count all samples. Sequential counting of the tubes thus required about 12 minutes. A small computer with printout capability then printed out the data after completion of the cycle.
# [2] = system: carboxypeptidase A; experiment: Enzymatic hydrolysis of pteroyltyrosine followed spectrophotometrically (uv); assay type: biochemical; details: 0.025 M Tris-HCl, 2 mM zinc chloride, pH 7.3, two hours at ambient temperature
# Description: Two milliliters of a solution of pteroyltrosine (0.75 mmoles/ml) in 0.025 M Tris-HCl containing 2 mM zinc chloride, pH 7.3 were diluted to 10 ml with distilled water. A portion of this solution (2 ml) was placed in a 1 cm cuvette and in another was placed 2 ml of distilled water. To each of the cuvettes was added 50 μl of a solution of 100 μl carboxypeptidase A suspension (Aldrich chemical, lot 060637) diluted with 0.9 ml of 10% lithium chloride.
# The time course of the reaction was followed spectrophotometrically (uv) over a period of two hours at ambient temperature. An increase and shift in max from 280 to 277 nm and a marked decrease in absorption at 220 nm was observed. Two isosbestic points at 242 and 282 nm were visible.
# [3] = Storage stability of the radioiodinated product, judged by assay performance; assay type: physicochemical; details: stored in a 50% aqueous propylene glycol solution, ten-week period
# Description: Radioiodination of biological compounds frequently leads to marked chemical instability and subsequent degradation of the radiolabel. This problem is often accentuated in the radiolabel when the materials to be radioiodinated are known to be sensitive to oxygen, light or extremes in pH, as is the case with folic acid and some derivatives.
# The reaction mixture was applied to a 1×20 cm Sephadex G25, fine, (Pharmacia Fine Chemicals, Uppsala, Sweden) column hydrated with distilled water and equilibrated with 0.1 M potassium phosphate, pH 7.5. The column was eluted with 0.1 M potassium phosphate buffer and 3 ml fractions collected. The product "peak" fractions 32-34 were collected, diluted 1:1 with propylene glycol and stored below 0° C.
structure (smiles),measurement,setting,value
"CN1c2c(O)nc(N)nc2NCC1CNc1ccc(C(=O)N[C@@H](CCC(=O)O)C(=O)O)cc1 (some centres unmarked) [N^5 -methyl THF, N-5-methyltetrahydrofolic acid]",coincidence of dose response curves generated using pteroyltyrosine [125I] as label,[1],more nearly coincident than at lower pH
"Nc1nc2ncc(CNc3ccc(C(=O)N[C@@H](Cc4ccc(O)cc4)C(=O)O)cc3)nc2c(=O)[nH]1 [Pteroyltyrosine, Pteroyl-L-Tyrosine]",final uv spectrum after treatment with carboxypeptidase A,[2],very similar to that of pteroic acid
"Nc1nc2ncc(CNc3ccc(C(=O)N[C@@H](CCC(=O)O)C(=O)O)cc3)nc2c(=O)[nH]1 [folic acid, pteroylglutamic acid]",coincidence of dose response curves generated using pteroyltyrosine [125I] as label,[1],more nearly coincident than at lower pH
Nc1nc(O)c2nc(CNc3ccc(C(=O)N[C@@H](Cc4ccc(O)c([125I])c4)C(=O)O)cc3)cnc2n1 [pteroyltyrosine [^125 I]],performance as radiolabel in CPB radioassay for folic acid,[1]; folic acid concentration range 0-20 ng/ml,effective radiolabel in a sensitive CPB radioassay for folic acid
same,deterioration in assay performance on storage,[3],no deterioration in assay performance over a ten-week period
